Where two headings read alike, the source gives them in different places. Residues, ends and D or L forms follow the SMILES beside them. *: point of attachment. Decanoyl = CCCCCCCCCC(=O)*; CH2Cl = ClC*

The values below come from patent US20090130691A1, “SCREENING PROTEINASE MODULATORS USING A CHIMERIC PROTEIN AND SKI-I PROPROTEIN CONVERTASE SUBSTRATES AND INHIBITORS” (Institut de Recherches Cliniques de Montreal, priority 2005, published 2009).

In experiment [1] the target is T1, SKI-1 (Cricetulus griseus, UniProt Q9Z2A8).
T1 construct: endogenous in cells; host or cells: CHOK1
T1 sequence (Q9Z2A8 187-1052): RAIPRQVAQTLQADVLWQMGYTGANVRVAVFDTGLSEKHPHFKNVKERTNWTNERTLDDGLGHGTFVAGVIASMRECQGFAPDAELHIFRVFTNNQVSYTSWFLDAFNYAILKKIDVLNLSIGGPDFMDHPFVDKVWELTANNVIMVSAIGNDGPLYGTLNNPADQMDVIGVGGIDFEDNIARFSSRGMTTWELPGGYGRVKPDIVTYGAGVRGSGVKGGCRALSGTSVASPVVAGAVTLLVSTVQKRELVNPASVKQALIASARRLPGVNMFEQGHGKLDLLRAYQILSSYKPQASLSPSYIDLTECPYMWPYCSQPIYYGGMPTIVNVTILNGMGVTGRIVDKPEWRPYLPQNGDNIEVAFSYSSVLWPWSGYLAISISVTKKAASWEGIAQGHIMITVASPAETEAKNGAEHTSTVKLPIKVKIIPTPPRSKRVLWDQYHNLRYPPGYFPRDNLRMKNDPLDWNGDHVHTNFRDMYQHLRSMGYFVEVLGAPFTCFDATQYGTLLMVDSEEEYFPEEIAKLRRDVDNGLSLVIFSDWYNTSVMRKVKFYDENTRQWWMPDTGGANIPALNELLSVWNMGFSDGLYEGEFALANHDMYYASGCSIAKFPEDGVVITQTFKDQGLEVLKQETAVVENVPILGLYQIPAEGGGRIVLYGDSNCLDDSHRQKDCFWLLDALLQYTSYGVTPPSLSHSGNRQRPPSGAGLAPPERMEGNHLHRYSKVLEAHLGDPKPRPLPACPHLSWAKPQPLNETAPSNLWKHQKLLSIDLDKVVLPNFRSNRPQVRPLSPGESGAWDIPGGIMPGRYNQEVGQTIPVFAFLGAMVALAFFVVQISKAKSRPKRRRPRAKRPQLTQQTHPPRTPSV
Briefly: cell-based. Details: species or system hamster.

Experiment [2] addresses T1, SKI-1. Briefly: cell-based.
Experiment [3] concerns the target T2, SKI-1 (Homo sapiens, UniProt Q14703).
T2 construct: For SKI-1, several cell lines expressing SKI-1 could be used; endogenous in cells; host or cells: HuH7
T2 sequence (Q14703 187-1052): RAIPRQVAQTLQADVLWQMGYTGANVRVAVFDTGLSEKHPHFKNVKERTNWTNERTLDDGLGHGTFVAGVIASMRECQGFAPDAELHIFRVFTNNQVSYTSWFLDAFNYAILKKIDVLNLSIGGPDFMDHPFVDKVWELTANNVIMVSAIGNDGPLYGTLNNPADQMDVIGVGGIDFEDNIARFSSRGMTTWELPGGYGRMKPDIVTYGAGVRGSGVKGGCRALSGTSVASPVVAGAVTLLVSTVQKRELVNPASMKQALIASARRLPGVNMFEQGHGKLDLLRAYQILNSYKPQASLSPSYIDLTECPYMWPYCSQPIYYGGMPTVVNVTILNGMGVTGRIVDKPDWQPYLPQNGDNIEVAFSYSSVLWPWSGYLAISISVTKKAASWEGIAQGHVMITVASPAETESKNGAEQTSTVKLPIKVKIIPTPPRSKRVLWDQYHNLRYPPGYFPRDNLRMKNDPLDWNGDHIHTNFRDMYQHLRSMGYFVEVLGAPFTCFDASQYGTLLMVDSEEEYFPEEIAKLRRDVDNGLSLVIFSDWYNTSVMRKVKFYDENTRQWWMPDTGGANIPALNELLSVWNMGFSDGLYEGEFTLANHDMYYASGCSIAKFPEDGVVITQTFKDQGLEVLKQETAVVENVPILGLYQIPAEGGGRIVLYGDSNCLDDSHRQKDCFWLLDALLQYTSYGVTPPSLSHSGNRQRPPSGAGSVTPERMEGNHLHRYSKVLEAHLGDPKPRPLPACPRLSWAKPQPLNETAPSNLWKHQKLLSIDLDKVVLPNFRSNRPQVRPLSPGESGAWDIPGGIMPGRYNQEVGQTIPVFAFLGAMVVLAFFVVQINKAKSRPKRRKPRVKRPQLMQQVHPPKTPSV
The experiment is classed as cell-based.

For experiment [4], the system named is endogenous Furin-like PCs. Briefly: Ex vivo processing of proPDGF-A in HEK293 cells stably expressing PDGF-A-V5. The experiment is classed as cell-based, human.
In experiment [5] the target is T3, SKI-1 (endogenous enzyme of CHOK1 cells) (UniProt Q9Z2A8).
T3 sequence: T1 sequence (Q9Z2A8 187-1052)
The experiment is described as follows: cell-based or functional assay.

In experiment [6] the target is endogenous Furin-like PCs. Briefly: cell-based or functional assay.
Experiment [7] has as its system Furin-like PCs. Briefly: FACS detection of HA tag on HeLa cells expressing Furin-like PC bait chimera. The class given is cell-based, human. The procedure: HeLa cells were submitted to two rounds of fluorescence activated cell sorting (FACS) using Alexa488™ as fluorophore with a MoFlo™ cell sorter (Cytomation, Fort Collins, Colo., USA) to obtain pools of cells expressing the Fc (Fc positive) but negative for the HA tag (HA negative) (FIG. 7A, darker dots). The presence of Fc tags was the sign that cleavage by Furin-like PCs at the bait sequence KRIRLRR←SPD (SEQ ID NO: 29) had released the HA tag.
This isolated pool of cells was incubated for 6 h with 60 μM of dec-RVKR-cmk (SEQ ID NO: 35), a potent PC-inhibitor, and submitted to FACS analysis.
The FACS sorted cells pool was then used to isolate individual clones: 10 clones were isolated of which one (clone PCfur-1.6) expresses a large amount of Fc (i.e. […] chimera) at the cell surface.

In experiment [8] the test system is Furin-like PCs. The experiment is described as follows: CELISA detection of HA tag on HeLa cells expressing Furin-like PC bait chimera. The class given is cell-based, human. To be noted: for effect of serpin expression on presence of the HA tag at the cell surface: PCfur-1.6 cells transfected or adenovirus infected. The procedure:
A CELISA test was then used to confirm the results obtained by the FACS analysis (FIG. 7A). Pools of cells transfected with the chimera were rinsed twice with PBS. Then, at room temperature, the following steps were performed. Cells were fixed in PBS and 4% formalin 10 min. They were then rinsed twice with PBS. The anti-HA/peroxidase antibody diluted 1/8000 in PBS and 1% powdered milk (filtered) was then added. The cells were incubated 30 minutes on Labquake™. Again, the cells were rinsed twice with PBS. The substrate (2,2′ azino-Bis (3-ethylobenzathiazoline-6-sulfonic acid); Sigma) was added to the cells and the mixture was incubated 15 minutes. The OD was read at 405 nm and 470 nm for turbidity, and the subtraction of the reading at both wavelengths (405-470) gave normalized product absorbance. The CELISA assay was performed in the presence of different concentrations of dec-RVKR-cmk (SEQ ID NO:35). The signal/noise ratio obtained in the presence of 60 μM of dec-RVKR-CMK (SEQ ID NO: 35) was above 15. The CELISA (FIG. 7B) confirmed that the presence of the inhibitor increases the detection of HA at the surface of the cells.
Some PCfur-1.6 cells were transfected with an expression vector containing a cDNA coding for either α1-PDX or the α1-AT using lipofectamine as described by the manufacturer (Invitrogen) (less than 20% efficacy), or infected using recombinant adenovirus (Ad) as described (Benjannet et al., 2004) (near 100% efficacy).

Experiment [9] relates to NARC-1/PCSK9. The experiment is described as follows: Western blot of cells expressing NARC-1/PCSK9 bait (SN11) chimera. The class given is cell-based, human. The settings on record: 50 μM, 6 h. From the text: A specific CELISA to the NARC-1/PCSK9 was designed using the approach described in Example 1 above. Chimeras were constructed using sequences known to be cleavable by NARC-1/PCSK9 (SSVFAQ-SIPWN (SEQ ID NO: 31)), or EEDSSVFAQ-SIPWN (SEQ ID NO: 55) combined to full length ACE2-CT segment, and then used to transfect HuH7. Chimeras are also similarly constructed using KHQKLL-SIDLD (SEQ ID NO: 32)). HuH7 was selected amongst 20 cell lines as being one in which the NARC-1/PCSK9 expression level the highest.
Cells expressing chimera containing the NARC/PCSK9 bait SSVFAQ-SIPWN (SEQ ID NO: 31) (SN11) were analyzed by Western blot. Cells were treated or not for 6 h with 50 μM of dec-RVKR-cmk (SEQ ID NO: 35) to inhibit endogenous Furin-like enzymes and thus indirectly activate NARC/PCSK9. Cells express an approximately equal amounts of ER- (endo H sensitive, not shown) and Golgi-associated (endo H resistant, not shown) SN11 chimera as observed using an HA mAb. […] The Western blot protocol used was a standard one using a monoclonal commercial anti-HA antibody coupled to horseradish peroxidase (Sigma; used as proposed by the manufacturer) at a final dilution of 1:5000.

Experiment [10] concerns Furin-like PCs. The experiment is described as follows: Western blot of cell-surface biotinylated proteins of PCfur-1.6 cells immunoprecipitated with HA antibody. The experiment is classed as cell-based, human. To be noted: PCfur-1.6 cells infected with recombinant adenovirus, 1× and 2×. From the text: Similar confirmation was obtained using Western blots of cell-surface biotinylated proteins, immunoprecipitated with the HA-antibody and detected on Western using horseraddish peroxidase coupled streptavidin (WB streptavidin-HRP). The Western blot protocol used was a standard one using a monoclonal commercial anti-HA antibody coupled to horseraddish peroxidase (Sigma; used as proposed by the manufacturer) at a final dilution of 1:5000. […] This confirms that the HA reappears specifically in the presence of a PCs inhibitor. […] Small molecules were also identified with the assay (see Example 7).

As to `CCCCCCCCCC(=O)N[C@H](C(=O)N[C@@H](CO)C(=O)N[C@@H](CCCNC(=N)N)C(=O)N[C@@H](CCCNC(=N)N)C(=O)N[C@@H](CC(C)C)C(=O)N[C@@H](CC(C)C)C(=O)CCl)[C@@H](C)CC` [dec-ISRRLL-cmk] (Decanoyl-ISRRLL-CH2Cl), the IC50 (as a rule, the midpoint of a concentration-inhibition curve) in experiment [1] was approximately 20 µM.
In experiment [2], `CCCCCCCCCC(=O)N[C@@H](CCCNC(=N)N)C(=O)N[C@@H](CCCNC(=N)N)C(=O)N[C@@H](CC(C)C)C(=O)N[C@@H](CC(C)C)C(=O)CCl` [dec-RRLL-cmk, reference compound] (Decanoyl-RRLL-CH2Cl) came in with an IC50 not above 1 µM.
As to `CCCCCCCCCC(=O)N[C@@H](Cc1ccc(O)cc1)C(=O)N[C@H](C(=O)N[C@@H](CO)C(=O)N[C@@H](CCCNC(=N)N)C(=O)N[C@@H](CCCNC(=N)N)C(=O)N[C@@H](CC(C)C)C(=O)N[C@@H](CC(C)C)C(=O)CCl)[C@@H](C)CC` [dec-YISRRLL-cmk] (Decanoyl-YISRRLL-CH2Cl), the “re-appearance of the HA tag at the cell surface (FACS)” value in experiment [3] is given as “A reversion of the level of the chimeric protein to that of the uncleaved form”. In addition, the IC50 was approximately 7 µM in experiment [1] and not above 1 µM in experiment [2]. In addition, the “inhibition of ex vivo processing of proPDGF-A (in words)” value in [4] is recorded as “not an effective inhibitor”.
In the case of dec-ISRRLL-cmk (peptide), the 50% inhibition of the processing of endogenous proSREBP-2 in CHOK1 cells (Western blot) in experiment [5] turned out to be 20 µM.
Turning to dec-RRLL-cmk (peptide), the inhibition of proPDGF-A processing in HEK293 cells (Western blot of media) in [6] is more than 100 µM.
For the compound dec-RVKR-cmk (Decanoyl-RVKR-CH2Cl), the “conversion of cleaved chimera into uncleaved form exhibiting the HA-tag at the cell surface (FACS)” value in experiment [7] (clone PCfur-1.6, as little as 30 μM) is given as “completely converted into an uncleaved form”. The “re-appearance of the HA tag at the cell surface (FACS)” value in experiment [7] (stable HeLa cell pool, 60 μM, 6 h) is on record as “very significant reversion of the level of the chimeric protein to that of the uncleaved form”. For the same compound, the “signal/noise ratio in CELISA” value in experiment [8] (HeLa cell pool, 60 μM inhibitor) is “above 15”. Also, the “level of Golgi-associated HA tag versus ER-associated (indirect activation of NARC-1/PCSK9)” value in experiment [9] is “a substantial decrease in the level of the Golgi-associated HA tag versus the ER-one”. In addition, in experiment [4] (HEK293 cells, overnight, Western blot), the “concentration that completely inhibits proPDGF-A processing” value is approximately 3 µM.
As to “α1-AT: serpin α1-antitrypsin, which does not inhibit PCs; control”, the “effect of serpin expression on presence of the HA tag at the cell surface” value in experiment [8] is “had no effect”. The “HA-tagged chimera at the cell surface by Western blot” value in experiment [10] was “no chimeric HA-tagged chimera could be detected”.
In the case of “α1-PDX: serpin variant, a known PCs inhibitor, expressed from cDNA or adenovirus”, the “increase in absorbance in CELISA, Ad:PDX compared to Ad:AT” value in experiment [8] (PCfur-1.6 cells infected with recombinant adenovirus) is on record as approximately 7 fold. Also, the “effect of serpin expression on presence of the HA tag at the cell surface” value in experiment [8] is reported as “increased the presence of the HA tag at the cell surface”. Besides, the “HA-tagged chimera at the cell surface by Western blot” value in [10] is listed as “the presence of the HA tag at the cell surface of these cells could be observed”.
